Measurements from patent US20260373042A1, “PEPTIDE HAVING ACTIVITY OF IMPROVING STATE OF SKIN, AND USE THEREOF” (CAREGEN CO., LTD., priority 2022, published 2026).

Key:
[1] = test system: NIH3T3 cells; assay: Proliferation (MTT survival rate) of NIH3T3 mouse fibroblasts; assay type: cell-based; settings: 50 μM or 100 μM, serum-free DMEM, 72 hours, MTT 540 nm, vs untreated control, FIG. 1A
Procedure: (§1) In this example, the aim was to confirm the effect of a peptide according to an example on proliferation of skin cells, by evaluating changes in survival rate of NIH3T3 cells, which are mouse fibroblasts, or HaCaT cells, which are human keratinocytes.
(§2) Specifically, NIH3T3 cells or HaCaT cells were seeded in a 96-well plate at a density of 5×10^3 cells/well and cultured for 24 hours. Next, the cells were washed once with serum-free DMEM media, and 50 μM or 100 μM of a peptide consisting of an amino acid sequence of SEQ ID NO: 1 was dispensed into 200 μL of the serum-free media, and cultured in a CO2 incubator at 37 °C for 72 hours. Next, the culture was washed twice with PBS, and 0.5 mg/ml of MTT (Sigma, Cat. No.: M2003, USA) solution was dispensed into each well. Next, after being shaded from light, it was cultured in a CO2 incubator at 37 °C for 4 hours. Next, the absorbance at 540 nm was measured. In this example, an untreated group was used as the control group, and a group to which insulin-like growth factor was added (IGF) was used as the positive control group.

[2] = test system: HaCaT cells; assay: Proliferation (MTT survival rate) of HaCaT human keratinocytes; assay type: cell-based; settings: 50 μM or 100 μM, serum-free DMEM, 72 hours, MTT 540 nm, vs untreated control, FIG. 1B
Procedure: as §1, §2

[3] = test system: SIRT-1; assay: Expression of sirtuin-1 (SIRT-1) in HaCaT cells, RT-PCR; assay type: cell-based, human; settings: 50 μM or 1000 μM, 24 hours, vs untreated control, FIG. 4, 5A
Procedure: (§3) In this example, the aim was to confirm the effect of the peptides according to an example on strengthening the skin barrier, by evaluating the expression levels of sirtuin-1 (SIRT-1) or aquaporin-3 (AQP3).
(§4) Specifically, HaCaT cells were seeded in a 6-well plate at a density of 3×10^5 cells/well and cultured for 24 hours. Next, the cells were washed once with serum-free DMEM media, and 50 μM or 1000 μM of a peptide consisting of an amino acid sequence of SEQ ID NO: 1 was dispensed into 1 mL of the serum-free media, and cultured in a CO2 incubator at 37 °C for 24 hours. Next, the culture was washed twice with PBS, and RNA was isolated from the culture using easy blue (iNtRON, Korea). Using an RT kit (Enzynomics, Korea), 1 μg of the isolated RNA was reverse transcribed to synthesize the respective cDNA. Next, polymerase chain reaction was performed using the cDNAs and primers sirtuin-1 and aquaporin-3. Meanwhile, an untreated group was used as a control group, and a group to which EGF was added (EGF) was used as a positive control group, the nucleotide sequences of the primers used in this example are shown in Table 3 below.

[4] = test system: NIH3T3 cells; assay: Reactive oxygen species increased by ultraviolet rays in NIH3T3 cells (DCFH-DA, flow cytometry); assay type: cell-based, mouse; settings: 50 μM or 1000 μM, UV 8 J/cm^2, 24 hours after UV, FIG. 6
Procedure: (§5) In this example, the aim was to confirm the effect of the peptide according to an embodiment on the antioxidant effect in damaged skin, by evaluating the change in the level of reactive oxygen species in skin cells increased by ultraviolet irradiation.
(§6) Specifically, NIH3T3 cells or HaCaT cells were seeded in a 6-well plate at a density of 5×10^5 cells/well and cultured for 24 hours. Next, the cells were washed once with serum-free DMEM media, and 50 μM or 1000 μM of a peptide consisting of an amino acid sequence of SEQ ID NO: 1 was dispensed into 1 mL of the serum-free media, and cultured in a CO2 incubator at 37 °C for […]. Next, the above culture was transferred to an e-tube, mixed with 1 ml of PBS, and dispensed into a well plate. Next, using a UV irradiator (VILBER LOURMAT, Cat No.: 3102-BSU, France), 8 J/cm^2 ultraviolet rays were irradiated to NIH3T3 cells, and 15 mJ/cm^2 ultraviolet rays were irradiated to HaCaT cells. Next, the PBS in the well plate was removed, 900 μL of the culture medium in which the peptides were dispensed was added, and the plate was cultured in a CO2 incubator at 37 °C for 24 hours. Next, the culture was treated with DCFH-DA (2′,7′-dichlorofluorescin diacetate), wrapped in foil, and cultured in a CO2 incubator at 37 °C for 30 minutes. […] After washing the centrifuged cells with PBS, fluorescence values were measured through flow cytometry (FACS, BD, USA). […]

[5] = test system: Col1a1; assay: Expression of collagen type 1 (Col1a1) in NIH3T3 cells, RT-PCR; assay type: cell-based, mouse; settings: 50 μM or 1000 μM, 24 hours, vs untreated control, FIG. 2, 3A
Procedure: (§7) In this example, the aim was to confirm the effect of the peptide according to an example on improving endogenous skin aging, including improvement of wrinkles and enhancement of elasticity, etc., by evaluating the expression levels of collagen type 1 (Col1a1), fibronectin, or elastin, which are known components of the dermis.
(§8) Specifically, NIH3T3 cells were seeded in a 6-well plate at a density of 3×10^5 cells/well and cultured for 24 hours. Next, the cells were washed once with serum-free DMEM media, and 50 μM or 1000 μM of a peptide consisting of an amino acid sequence of SEQ ID NO: 1 was dispensed into 1 mL of the serum-free media, and cultured in a CO2 incubator at 37 °C for 24 hours. Next, the culture was washed twice with PBS, and RNA was isolated from the culture using easy blue (iNtRON, Korea). Using an RT kit (Enzynomics, Korea), 1 μg of the isolated RNA was reverse transcribed to synthesize the respective cDNA. Next, polymerase chain reaction (PCR) was performed using the cDNAs and primers Col1a1, fibronectin, and elastin. Meanwhile, an untreated group was used as a control group, and a group to which TGF-β1 was added (TGF-β1) was used as a positive control group, the nucleotide sequences of the primers used in this example are shown in Table 2 below.

[6] = test system: elastin; assay: Expression of elastin in NIH3T3 cells, RT-PCR; assay type: cell-based, mouse; settings: 50 μM or 1000 μM, 24 hours, vs untreated control, FIG. 2, 3C
Procedure: as §7, §8

[7] = test system: AQP3; assay: Expression of aquaporin-3 (AQP3) in HaCaT cells, RT-PCR; assay type: cell-based, human; settings: 50 μM or 1000 μM, 24 hours, vs untreated control, FIG. 4, 5B
Procedure: as §3, §4

[8] = test system: HaCaT cells; assay: Reactive oxygen species increased by ultraviolet rays in HaCaT cells (DCFH-DA, flow cytometry); assay type: cell-based, human; settings: 50 μM or 1000 μM, UV 15 mJ/cm^2, 24 hours after UV, FIG. 7
Procedure: as §5, §6

[9] = test system: fibronectin; assay: Expression of fibronectin in NIH3T3 cells, RT-PCR; assay type: cell-based, mouse; settings: 50 μM or 1000 μM, 24 hours, vs untreated control, FIG. 2, 3B
Procedure: as §7, §8

DGWNY [SEQ ID NO: 1]
proliferation of fibroblasts [1]: promoted
proliferation of keratinocytes [2]: promoted
expression of SIRT-1 [3]: increased
level of reactive oxygen species in fibroblasts increased by ultraviolet irradiation [4]: reduced
expression of Col1a1 [5]: increased
expression of elastin [6]: increased
expression of AQP3 [7]: increased
level of reactive oxygen species in keratinocytes increased by ultraviolet irradiation [8]: reduced
expression of fibronectin [9]: increased
